Earlier results as cited in patent publication US20070298096A1, “Analgesic/Antipyretic Compositions for Enhanced Absorption” (priority 2004, published 2007).
Read-outs that look alike come from different tables or passages of the source.

CC(=O)Nc1ccc(O)cc1 [APAP, acetaminophen]
tmax (1 gram of APAP administered with 4 grams of calcium carbonate): 1.9 h | tmax (APAP alone, 1 gram): 1.4 h | time for the plasma level of APAP to reach its maximum, longer than APAP alone (co-administered with the calcium carbonate): ½
